Assay results published in patent USRE47689E1, “Compounds for treating spinal muscular atrophy” (PTC Therapeutics, Inc., priority 2011, dated 2019).
Read-outs that look alike come from different tables or passages of the source.

Key:
[1] = test system: SMN2 minigene (full length SMN2 minigene mRNA containing SMN2 exon 7); experiment: SMN2 minigene mRNA splicing RT-qPCR assay in cultured cells; assay type: cell-based, human; details: Homo sapiens, HEK293-H, read-out: EC1.5x for production of full length SMN2 mRNA
Summary of the method: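 Lysates → one-step RT-qPCR, minigene-specific primers (0.4 μM final) + GAPDH multiplex, 40 cycles. FL/GAPDH vs DMSO; EC1.5x, star-binned.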

Smn protein = Smn protein assay in cultured cells (SMN HTRF); assay type: cell-based, human; details: 48 hours; for EC1.5x (concentration giving 1.5-fold Smn protein increase): SMA Type 1 patient fibroblast cells (GM03813), 7-point concentration curve, SMN HTRF, concentration producing 1.5 times Smn protein vs DMSO vehicle control, read-out: EC1.5x for Smn protein expression; for maximum fold (Fold) increase of Smn protein: SMA patient fibroblast cells, 7-point concentration data, fold increase relative to vehicle control (SMN HTRF)
Summary of the method: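 Smn in SMA fibroblast lysates, measured by anti-SMN HTRF after 48 h compound exposure; EC1.5x from fold change over vehicle.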

[2] = HEK293H cells stably transfected with SMN2-A minigene, 24 hours, 7-point concentration curve, 1.5-fold relative to vehicle-treated cells

Row | melting point | Structure (SMILES) | EC (1.5-fold) [1, 2] [µM] | EC1.5x (concentration giving 1.5-fold Smn protein increase) (Smn protein) [nM] | maximum fold (Fold) increase of Smn protein (Smn protein) | EC (1.5-fold) ([1]; 24 h) [µM]
1 | 260 to 262 °C | Cc1nc(Cl)cn2cc(-c3cc4ccc(N5CCN6CCC[C@H]6C5)cc4oc3=O)nc12 [Compound 711, 3-(6-chloro-8-methylimidazo[1,2-a]pyrazin-2-yl)-7-[(8aS)-hexahydropyrrolo[1,2-a]pyrazin-2(1H)-yl]-2H-chromen-2-one] | < 0.1 | 1000 to 3000 | *** (fold increase between >1.35 and ≤1.5) | 
2 | 205 to 211 °C | O=c1oc2cc(O[C@H]3CCNC3)ccc2cc1-c1nc2ccccc2s1 [Compound 54, 3-(1,3-benzothiazol-2-yl)-7-[(3S)-pyrrolidin-3-yloxy]-2H-chromen-2-one] | 1 to 3 |  | * (maximum fold increase of ≤1.2) | 
3 | 140 to 180 °C (dec.) | Cc1ccc2nc(-c3cc4ccc(N(C)CCN(C)C)cc4oc3=O)cn2c1 [Compound 175, 7-{[2-(dimethylamino)ethyl](methyl)amino}-3-(6-methylimidazo[1,2-a]pyridin-2-yl)-2H-chromen-2-one] | 3 to 30 |  | * (maximum fold increase of ≤1.2) | 
4 | 295 to 298 °C | C[C@@H]1CN(c2ccc3cc(-c4cn5cccc(C(F)(F)F)c5n4)c(=O)oc3c2)C[C@H](C)N1 [Compound 211, 7-[(3R,5S)-3,5-dimethylpiperazin-1-yl]-3-[8-(trifluoromethyl)imidazo[1,2-a]pyridin-2-yl]-2H-chromen-2-one] | 0.3 to 1 |  | * (maximum fold increase of ≤1.2) | 
5 | 225 to 228 °C | Cc1ccc(Nc2cc3ccc(N4CCNCC4)cc3oc2=O)nc1 [Compound 63, 3-[(5-methylpyridin-2-yl)amino]-7-(piperazin-1-yl)-2H-chromen-2-one] | 1 to 3 |  | ** (fold increase between >1.2 and ≤1.35) | 
6 | 258 to 263 °C | Cc1cc(Cl)c2nc(-c3cc4ccc(N5C[C@@H](C)N[C@@H](C)C5)cc4oc3=O)cn2c1 [Compound 342, 3-(8-chloro-6-methylimidazo[1,2-a]pyridin-2-yl)-7-[(3R,5S)-3,5-dimethylpiperazin-1-yl]-2H-chromen-2-one] | 0.1 to 0.3 |  | ** (fold increase between >1.2 and ≤1.35) | 
7 | 145 to 148 °C | Cc1cn2cc(-c3cc4ccc(N5CCN6CCCCC6C5)cc4oc3=O)cc2c(C)n1 (stereo not drawn) [Compound 683, 3-(1,3-dimethylpyrrolo[1,2-a]pyrazin-7-yl)-7-(octahydro-2H-pyrido[1,2-a]pyrazin-2-yl)-2H-chromen-2-one] | < 0.1 | < 300 | **** (fold increase between >1.5 and ≤1.65) | 
8 | 153 to 156 °C | Cc1cn2cc(-c3cc4ccc(N5CCN(C(C)C)[C@@H](C)C5)cc4oc3=O)cc2c(C)n1 [Compound 768, 3-(1,3-dimethylpyrrolo[1,2-a]pyrazin-7-yl)-7-[(3S)-3-methyl-4-(propan-2-yl)piperazin-1-yl]-2H-chromen-2-one] | < 0.1 | < 300 | **** (fold increase between >1.5 and ≤1.65) | 
9 | 279 to 281 °C | Cc1ccn2nc(-c3cc4ccc(N5CCN(C)CC5)cc4oc3=O)cc2c1 [Compound 303, 7-(4-methylpiperazin-1-yl)-3-(5-methylpyrazolo[1,5-a]pyridin-2-yl)-2H-chromen-2-one] | 0.3 to 1 | 3000 to 10000 | *** (fold increase between >1.35 and ≤1.5) | 
10 | 238 to 240 °C | C[C@@H]1CN(c2ccc3cc(-c4nc5c(Cl)cccc5o4)c(=O)oc3c2)C[C@H](C)N1 [Compound 69, 3-(4-chloro-1,3-benzoxazol-2-yl)-7-[(3R,5S)-3,5-dimethylpiperazin-1-yl]-2H-chromen-2-one] | 0.1 to 0.3 |  | * (maximum fold increase of ≤1.2) | 
11 | 210 to 212 °C | Cc1cn2cc(-c3cc4ccc(N5C[C@@H](C)N[C@@H](C)C5)cc4oc3=O)nc2s1 [Compound 152, 7-[(3R,5S)-3,5-dimethylpiperazin-1-yl]-3-(2-methylimidazo[2,1-b][1,3]thiazol-6-yl)-2H-chromen-2-one] | < 0.1 | 1000 to 3000 | *** (fold increase between >1.35 and ≤1.5) | 
12 | 236 to 239 °C | Cc1cn2cc(-c3cc4ccc(N5CC6CC5CN6)cc4oc3=O)cc2c(C)n1 (stereo not drawn) [Compound 783, 7-(2,5-diazabicyclo[2.2.1]hept-2-yl)-3-(1,3-dimethylpyrrolo[1,2-a]pyrazin-7-yl)-2H-chromen-2-one] | < 0.1 |  | *** (fold increase between >1.35 and ≤1.5) | 
13 | 287 to 289 °C | Cc1cn2cc(-c3cc4ccc(N5CCN(C6CC6)CC5)cc4oc3=O)nc2cn1 [Compound 811, 7-(4-cyclopropylpiperazin-1-yl)-3-(6-methylimidazo[1,2-a]pyrazin-2-yl)-2H-chromen-2-one] | 0.3 to 1 | 300 to 1000 | **** (fold increase between >1.5 and ≤1.65) | 
14 | 185 to 189 °C | CCc1cn2cc(-c3cc4ccc(N5CCCNCC5)cc4oc3=O)nc2s1 [Compound 430, 7-(1,4-diazepan-1-yl)-3-(2-ethylimidazo[2,1-b][1,3]thiazol-6-yl)-2H-chromen-2-one] | 1 to 3 |  | * (maximum fold increase of ≤1.2) | 
15 | 179 to 181 °C | CN(C)c1ccc(-c2cc3ccc(N4CCNCC4)cc3oc2=O)cn1 [Compound 547, 3-[6-(dimethylamino)pyridin-3-yl]-7-(piperazin-1-yl)-2H-chromen-2-one] | 3 to 30 |  | * (maximum fold increase of ≤1.2) | 
16 | 169 to 171 °C | COc1cc(-c2cc3ccc(N4CCN(C)CC4)cc3oc2=O)ccn1 [Compound 165, 3-(2-methoxypyridin-4-yl)-7-(4-methylpiperazin-1-yl)-2H-chromen-2-one] | 3 to 30 |  | ** (fold increase between >1.2 and ≤1.35) | 
17 | 249 to 253 °C | O=c1oc2cc(N3CCNCC3)cc(F)c2cc1-c1nc2c(C(F)(F)F)cccc2o1 [Compound 254, 5-fluoro-7-(piperazin-1-yl)-3-[4-(trifluoromethyl)-1,3-benzoxazol-2-yl]-2H-chromen-2-one] | 0.3 to 1 |  | * (maximum fold increase of ≤1.2) | 
18 | 158 to 162 °C | Cc1cn2cc(-c3cc4ccc(CCCN(CCO)CCO)cc4oc3=O)nc2c(C)n1 [Compound 885, 7-{3-[bis(2-hydroxyethyl)amino]propyl}-3-(6,8-dimethylimidazo[1,2-a]pyrazin-2-yl)-2H-chromen-2-one] | 0.1 to 0.3 | 300 to 1000 | ***** (fold increase >1.65) | 
19 | 171 to 176 °C | CN(C)Cc1ccc2cc(-c3nc4ccccc4s3)c(=O)oc2c1 [Compound 13, 3-(1,3-benzothiazol-2-yl)-7-[(dimethylamino)methyl]-2H-chromen-2-one] | 1 to 3 |  | ** (fold increase between >1.2 and ≤1.35) | 
20 | 299 °C (dec.) | Cc1cccn2cc(-c3cc4ccc(N5CCN[C@H](C)C5)cc4oc3=O)nc12 [Compound 247, 3-(8-methylimidazo[1,2-a]pyridin-2-yl)-7-[(3R)-3-methylpiperazin-1-yl]-2H-chromen-2-one] | 0.1 to 0.3 |  | ** (fold increase between >1.2 and ≤1.35) | 
21 | 179 to 184 °C | Cc1cn2cc(-c3cc4ccc(N5CCCN(C)CC5)cc4oc3=O)nc2s1 [Compound 153, 7-(4-methyl-1,4-diazepan-1-yl)-3-(2-methylimidazo[2,1-b][1,3]thiazol-6-yl)-2H-chromen-2-one] | 1 to 3 |  | *** (fold increase between >1.35 and ≤1.5) | 
22 | 253 to 257 °C | Cc1cc2cc(-c3cc4ccc(N5CCN[C@@H](C)C5)cc4oc3=O)oc2c(C)n1 [Compound 804, 3-(5,7-dimethylfuro[2,3-c]pyridin-2-yl)-7-[(3S)-3-methylpiperazin-1-yl]-2H-chromen-2-one] | < 0.1 | < 300 | ***** (fold increase >1.65) | 
23 | 194 to 196 °C | Cc1cn2cc(-c3cc4ccc(CCCN(C)C)cc4oc3=O)nc2c(C)n1 [Compound 857, 7-[3-(dimethylamino)propyl]-3-(6,8-dimethylimidazo[1,2-a]pyrazin-2-yl)-2H-chromen-2-one] | < 0.1 | < 300 | ***** (fold increase >1.65) | 

Row | Structure (SMILES) | melting point | EC (1.5-fold) [1, 2] [µM] | EC1.5x (concentration giving 1.5-fold Smn protein increase) (Smn protein) [nM] | maximum fold (Fold) increase of Smn protein (Smn protein) | EC (1.5-fold) ([1]; 24 h) [µM]
24 | Cc1cccc(-c2cc3ccc(N4CCNCC4)cc3oc2=O)c1 [Compound 511, 3-(3-methylphenyl)-7-(piperazin-1-yl)-2H-chromen-2-one] | 118 to 120 °C |  |  | * (maximum fold increase of ≤1.2) | 1 to 3
